Here are results for 28 compounds from patent EP4782449A1, “TRICYCLIC PYRIDINE COMPOUND ACTING AS SARM1 ENZYME ACTIVITY INHIBITOR, AND USE THEREOF” (Artivila (ShenZhen) Innovation Center, Ltd., priority 2023, dated 2025).

In experiment [1] the target is T1, SARM1 (Homo sapiens, UniProt Q6SZW1).
T1 construct: inventors produced full-length SARM1 for NAD enzyme activity experiments, and used it for screening; His (C); made in house; host or cells: HEK293 cells, transient transfection; supernatant of digitonin lysate, no further purification described
T1 sequence (Q6SZW1 28-724): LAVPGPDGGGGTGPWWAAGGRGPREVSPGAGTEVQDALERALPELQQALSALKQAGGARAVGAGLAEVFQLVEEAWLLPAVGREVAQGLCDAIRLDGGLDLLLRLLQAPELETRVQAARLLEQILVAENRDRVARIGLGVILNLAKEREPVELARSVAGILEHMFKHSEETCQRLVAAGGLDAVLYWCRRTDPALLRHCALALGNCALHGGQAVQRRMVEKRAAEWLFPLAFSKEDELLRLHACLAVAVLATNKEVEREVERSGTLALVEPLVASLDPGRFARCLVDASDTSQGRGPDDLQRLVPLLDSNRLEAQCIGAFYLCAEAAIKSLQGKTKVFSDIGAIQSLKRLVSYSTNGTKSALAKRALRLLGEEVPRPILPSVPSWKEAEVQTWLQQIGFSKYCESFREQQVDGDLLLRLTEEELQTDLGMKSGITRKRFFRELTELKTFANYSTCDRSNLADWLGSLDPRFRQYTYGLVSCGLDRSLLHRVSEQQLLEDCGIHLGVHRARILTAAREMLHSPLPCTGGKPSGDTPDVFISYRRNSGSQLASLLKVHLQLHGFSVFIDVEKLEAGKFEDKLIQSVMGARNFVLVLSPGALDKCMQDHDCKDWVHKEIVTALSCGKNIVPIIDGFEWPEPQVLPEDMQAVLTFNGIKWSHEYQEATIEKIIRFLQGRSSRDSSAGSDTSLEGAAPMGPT
As to the kind of experiment: In vitro biochemical assay for inhibiting SARM1 enzyme activity (PC6 fluorescence, NADase). As to conditions: full-length SARM1 from transfected HEK293 cells; 50 µM NAD, 50 µM PC6, 50 µM NMN activator; room temperature, 30 minutes; read-out: IC50. The method, then:
The gene sequence of SARM1 protein was amplified using PCR, and the PCR amplification product was constructed into pcDNA3.1-HIS-C plasmid. The above construction was completed by YouBio(Hunan, China). HEK293 cells were cultured in 10 cm dishes using DMEM, and the cells were transfected with 15 μg pcDNA3.1-SARM[…]-C expression plasmid on the following day. Cells were collected 48 hours after transfection, and SARM1 protein expressed in the cells was obtained by digitonin lysis for in vitro activity assay experiments. The specific procedure was as follows: Cells were digested with trypsin-EDTA, then centrifuged at 1000 rpm for 5 minutes, washed once with PBS, and then resuspended in PBS containing 100 μM digitonin, with 0.6 mL PBS for the cells in per 10 cm dish, and lysed for 5 minutes. […] Then the supernatant containing SARM1 protein was collected by centrifugation at 5000 rpm for 10 minutes. […] A group without inhibitor was used as control group. All mixtures were incubated at room temperature for 10 minutes. Then, 50 μM NAD and 50 μM PC6 as substrates and 50 μM NMN as an activator were added to the SARM1 protein incubated with the inhibitor, and the reaction was carried out at room temperature for 30 minutes. The concentrations of each component were the final concentrations in the reaction system. […] Finally, the reaction rate was used to represent the protein activity and calculate the half-maximal inhibitory concentration.

For experiment [2], the system named is dorsal root ganglion explants. As to the kind of experiment: Axonal Wallerian degeneration assay in mouse DRG explant culture. It counts as cell-based, C57BL/6 male mice. As to conditions: 10 µM test compound, 2 hours pretreatment, axons transected, images at 0 hour and 24 hours. The text has this: The experimental method was based on Gerdts J et al. (Gerdts J, Sasaki Y, Vohra B, Marasa J, Milbrandt J. Image-based screening identifies novel roles for IkappaB kinase and glycogen synthase kinase 3 in axonal degeneration. J Biol Chem. 2011 Aug 12;286(32):28011-8).
Dorsal root ganglia were dissected from 2-month-old C57BL/6 male mice and placed in 35 mm culture dishes containing pre-cooled HBSS buffer. Excess tissue from each dorsal root ganglion was removed and cut into 2-3 explants using a scalpel, and the explants were planted in wells of a 96-well plate coated with 100 ng/mL Matrigel (Corning). 100 µL of DRG culture medium (Neurobasal medium (Gibco) containing 2% B-27 (Gibco), 1% GlutaMax (Gibco), and 10 ng/mL NGF (MCE)) was added, then cultured in a 37°C incubator for one week, with medium change on day 4, and experiments were performed on day 8.
0.1 µL of 10 mM test compound was dissolved in 100 µL DRG culture medium to prepare new culture medium containing 10 µM test compound. The culture medium in the 96-well plate was aspirated and new culture medium containing the test compound was added. Then the dorsal root ganglion explants were incubated with the medium in a 37°C incubator for 2 hours for pre-protection. After 2-hour pretreatment, a glass electrode was used to transect axons in the area near the tissue block, and bright-field images of axons in the same area were captured at 0 hour and 24 hours post axonal degeneration using a 20x objective lens of a microscope (Olympus). Axonal integrity was evaluated using an in-house developed script.

A value given as a limit tells only on which side of the number the result lay.

The IC50 is the point on the concentration scale where inhibition reaches its midpoint.

Take `O=C(NCc1ccc(F)c(F)c1)Nc1ccc2c(c1)COc1cnccc1-2` [Compound 46]: the half-inhibitory concentration (IC50) in experiment [1] was in the range of 100 to 1000 nM. The “Degree of Protection Against Axonal Wallerian Degeneration” value (from here on “Degree”) in experiment [2] is reported as “A (substantial protection (A) >50%)”.

Consider `O=C(CCc1ccc(F)cc1F)Nc1ccc2c(c1)COc1cnccc1-2` [Compound 37], for which, in experiment [1], the IC50 fell in the range of 100 to 1000 nM. Moreover, the “Degree” value in experiment [2] is on record as “A (substantial protection (A) >50%)”.

As to `O=C(Nc1ccc2c(c1)COc1cnccc1-2)OCc1ccc(F)cc1` [Compound 135], the IC50 in experiment [1] is 100 to 1000 nM. Moreover, the “Degree” value in experiment [2] is “A (substantial protection (A) >50%)”.

For the compound `O=C(CCc1ccc(F)cc1)Nc1cnc2c(c1)COc1cnccc1-2` [Compound 91, 3-(4-fluorophenyl)-N-(5H-pyrano[4,5-b:2,3-c']dipyridin-3-yl)propanamide], the half-inhibitory concentration (IC50) in experiment [1] is below 100 nM. Moreover, the “Degree” value in experiment [2] is “A (substantial protection (A) >50%)”.

In the case of `O=C1C(Cc2ccc(F)cc2)CN1c1ccc2c(c1)COc1cnccc1-2` (centres unmarked) [Compound 142, 3-(4-fluorobenzyl)-1-(6H-isochromeno[3,4-c]pyridin-8-yl)azetidin-2-one], the IC50 in experiment [1] fell in the range of 100 to 1000 nM. The “Degree” value in experiment [2] was “A (substantial protection (A) >50%)”.

Turning to `O=C(CCc1cccc(F)c1)Nc1cnc2c(c1)COc1cnccc1-2` [Compound 94], in experiment [1], the IC50 was below 100 nM. Also, in experiment [2], the “Degree” value was “A (substantial protection (A) >50%)”.

`[2H]C1(Cc2ccc(F)cc2)CCN(c2ccc3c(c2)COc2cnccc2-3)C1=O` (centres unmarked) [Compound 139, 3-(4-fluorobenzyl)-1-(6H-isochromeno[3,4-c]pyridin-8-yl)pyrrolidin-2-one-3d]: the IC50 in experiment [1] is below 100 nM. Moreover, in experiment [2], the “Degree” value was “A (substantial protection (A) >50%)”.

Turning to `O=C(CCc1ccc(F)cc1)Nc1ccc2c(c1)COc1cnccc1-2` [Compound 29, 3-(4-fluorophenyl)-N-(6H-isochromeno[3,4-c]pyridin-8-yl)propanamide], in experiment [1], the IC50 is below 100 nM. For the same compound, in experiment [2], the “Degree” value is listed as “A (substantial protection (A) >50%)”.

Consider `O=C(CCc1ccc(F)cc1)Nc1ccc2c(c1)COc1cncc(Cl)c1-2` [Compound 140], for which the IC50 in experiment [1] fell in the range of 100 to 1000 nM. Moreover, the “Degree” value in experiment [2] is on record as “B (partial protection (B): 20% to 50%)”.

As for `O=C(CNc1ccc(F)cc1)Nc1ccc2c(c1)COc1cnccc1-2` [Compound 75], in experiment [1], the IC50 was below 100 nM. In addition, the “Degree” value in experiment [2] was “B (partial protection (B): 20% to 50%)”.

In the case of `O=C1C(Cc2cccc3c2CCCC3)CCN1c1ccc2c(c1)COc1cnccc1-2` (centres unmarked) [Compound 56], the IC50 in experiment [1] lay in the range of 1000 to 10000 nM. In experiment [2], the “Degree” value is listed as “B (partial protection (B): 20% to 50%)”.

For the compound `O=C(CCc1ccccc1F)Nc1ccc2c(c1)COc1cnccc1-2` [Compound 136], the half-inhibitory concentration (IC50) in experiment [1] was below 100 nM. The “Degree” value in experiment [2] is reported as “A (substantial protection (A) >50%)”.

Consider `Cc1ccc(CCC(=O)Nc2ccc3c(c2)COc2cnccc2-3)cc1` [Compound 41], for which the IC50 in experiment [1] lay within 100 to 1000 nM. In addition, the “Degree” value in experiment [2] was “A (substantial protection (A) >50%)”.

Take `O=C(NCc1ccc(Cl)c(F)c1)Nc1ccc2c(c1)COc1cnccc1-2` [Compound 68]: the IC50 in experiment [1] is 100 to 1000 nM. In addition, in experiment [2], the “Degree” value is “A (substantial protection (A) >50%)”.

In the case of `N#Cc1ccc(CCC(=O)Nc2ccc3c(c2)COc2cnccc2-3)cc1F` [Compound 30], the IC50 in experiment [1] is 100 to 1000 nM. In addition, the “Degree” value in experiment [2] was “A (substantial protection (A) >50%)”.

As for `O=C1C(Cc2ccc3occc3c2)CCN1c1ccc2c(c1)COc1cnccc1-2` (centres unmarked) [Compound 57], in experiment [1], the IC50 lay within 100 to 1000 nM. In experiment [2], the “Degree” value is recorded as “B (partial protection (B): 20% to 50%)”.

In the case of `O=C1C(Cc2ccc(Cl)cc2)CCN1c1ccc2c(c1)COc1cnccc1-2` (centres unmarked) [Compound 1, 3-(4-chlorobenzyl)-1-(6H-isochromeno[3,4-c]pyridin-8-yl)pyrrolidin-2-one], in experiment [1], the half-inhibitory concentration (IC50) is below 100 nM. Further, the “Degree” value in experiment [2] is on record as “A (substantial protection (A) >50%)”.

Consider `O=C1C(Cc2ccc(F)cc2)CCN1c1cnc2c(c1)COc1cnccc1-2` (centres unmarked) [Compound 126], for which the IC50 in experiment [1] is below 100 nM. Further, in experiment [2], the “Degree” value is listed as “A (substantial protection (A) >50%)”.

Regarding `O=C1C(Cc2ccc(F)cc2)CCCN1c1ccc2c(c1)COc1cnccc1-2` (centres unmarked) [Compound 137], the IC50 in experiment [1] lay in the range of 100 to 1000 nM. The “Degree” value in experiment [2] is given as “A (substantial protection (A) >50%)”.

Take `O=C(CCc1ccc(C(F)(F)F)cc1)Nc1ccc2c(c1)COc1cnccc1-2` [Compound 32]: the IC50 in experiment [1] was in the range of 100 to 1000 nM. Besides, the “Degree” value in experiment [2] is reported as “B (partial protection (B): 20% to 50%)”.

For the compound `CC1Oc2cnccc2-c2ccc(N3CCC(Cc4ccc(F)cc4)C3=O)cc21` (centres unmarked) [Compound 147, 3-(4-fluorobenzyl)-1-(6-methyl-6H-isochromeno[3,4-c]pyridin-8-yl)pyrrolidin-2-one], the IC50 in experiment [1] is below 100 nM. In addition, the “Degree” value in experiment [2] is “A (substantial protection (A) >50%)”.

For the compound `O=C(COc1ccc(F)cc1)Nc1ccc2c(c1)COc1cnccc1-2` [Compound 74], the IC50 in experiment [1] was below 100 nM. For the same compound, the “Degree” value in experiment [2] is “B (partial protection (B): 20% to 50%)”.

Turning to `O=C(NCc1ccc(F)cc1)Nc1ccc2c(c1)COc1cnccc1-2` [Compound 45, 1-(4-fluorobenzyl)-3-(6H-isochromeno[3,4-c]pyridin-8-yl)urea], in experiment [1], the 50% inhibitory concentration (IC50) was below 100 nM. In addition, the “Degree” value in experiment [2] is reported as “A (substantial protection (A) >50%)”.

In the case of `Cc1ccc(CNC(=O)Nc2ccc3c(c2)COc2cnccc2-3)cc1` [Compound 72], the IC50 in experiment [1] is 100 to 1000 nM. Also, the “Degree” value in experiment [2] is recorded as “B (partial protection (B): 20% to 50%)”.

For the compound `O=C(NCc1ccccc1)Nc1ccc2c(c1)COc1cnccc1-2` [Compound 71], the IC50 in experiment [1] is 1000 to 10000 nM. The “Degree” value in experiment [2] is on record as “B (partial protection (B): 20% to 50%)”.

For the compound `O=C(NCc1cccc(F)c1)Nc1ccc2c(c1)COc1cnccc1-2` [Compound 47], the IC50 in experiment [1] was 100 to 1000 nM. In addition, in experiment [2], the “Degree” value was “A (substantial protection (A) >50%)”.

Consider `O=C(NCc1ccc(Cl)c(Cl)c1)Nc1ccc2c(c1)COc1cnccc1-2` [Compound 65], for which the IC50 in experiment [1] lay in the range of 1000 to 10000 nM. The “Degree” value in experiment [2] was “B (partial protection (B): 20% to 50%)”.

As for `N#Cc1ccc(CNC(=O)Nc2ccc3c(c2)COc2cnccc2-3)cc1` [Compound 70], in experiment [1], the half-inhibitory concentration (IC50) was 1000 to 10000 nM. In addition, the “Degree” value in experiment [2] is recorded as “B (partial protection (B): 20% to 50%)”.
